Measured values published in PMC4685510, “A Cell Biologist’s Field Guide to Aurora Kinase Inhibitors” (Frontiers in Oncology, 2015).

Columns and labels:
Assay in all cases: biochemical
Format in all cases: biochemical
[1] = target: 363 human kinases (including Aurora A/B/C) (Homo sapiens, UniProt P50613); conditions: CDK7/cyclin H, [ATP] 50 µM; for remaining activity at 0.1 µM: 100 nM; for remaining activity at 0.1 µM / remaining activity at 0.5 µM: read-out: % Enzyme Activity (relative to DMSO controls)
Description: (§1) However, the Aurora A/B selectivity ratios derived from our in vitro and in vivo data can be compared to prioritize inhibitors.

[2] = target: T1, 363 human kinases (including Aurora A/B/C) (Homo sapiens, UniProt Q16832); conditions: DDR2, [ATP] 5 µM; for remaining activity at 0.1 µM: 100 nM; for remaining activity at 0.1 µM / remaining activity at 0.5 µM: read-out: % Enzyme Activity (relative to DMSO controls)
T1 sequence (Q16832 22-855): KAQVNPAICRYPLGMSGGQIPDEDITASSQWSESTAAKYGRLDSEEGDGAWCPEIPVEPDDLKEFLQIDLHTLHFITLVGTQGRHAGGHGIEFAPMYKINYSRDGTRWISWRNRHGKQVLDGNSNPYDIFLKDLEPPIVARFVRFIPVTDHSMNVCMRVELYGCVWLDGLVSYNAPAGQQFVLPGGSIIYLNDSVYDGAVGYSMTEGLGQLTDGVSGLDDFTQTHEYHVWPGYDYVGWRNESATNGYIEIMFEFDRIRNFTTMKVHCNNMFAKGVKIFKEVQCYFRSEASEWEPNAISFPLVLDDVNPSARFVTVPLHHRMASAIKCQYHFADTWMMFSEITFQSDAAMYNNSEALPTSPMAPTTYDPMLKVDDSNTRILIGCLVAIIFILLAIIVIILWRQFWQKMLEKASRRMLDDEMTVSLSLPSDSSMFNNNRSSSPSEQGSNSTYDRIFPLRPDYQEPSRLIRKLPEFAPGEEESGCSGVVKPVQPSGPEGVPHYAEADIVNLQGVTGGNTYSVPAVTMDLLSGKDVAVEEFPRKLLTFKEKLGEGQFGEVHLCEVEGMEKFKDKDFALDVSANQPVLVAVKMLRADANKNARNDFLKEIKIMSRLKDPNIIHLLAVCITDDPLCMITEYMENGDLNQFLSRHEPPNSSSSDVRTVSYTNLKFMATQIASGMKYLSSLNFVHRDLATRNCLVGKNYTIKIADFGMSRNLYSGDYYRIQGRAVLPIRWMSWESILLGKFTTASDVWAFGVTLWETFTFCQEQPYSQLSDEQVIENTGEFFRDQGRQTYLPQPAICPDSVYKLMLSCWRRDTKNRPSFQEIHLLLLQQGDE
Description: as §1

[3] = target: 363 human kinases (including Aurora A/B/C) (Homo sapiens, UniProt Q9Y4K4); conditions: KHS/MAP4K5; for remaining activity at 0.1 µM: 100 nM; for remaining activity at 0.1 µM / remaining activity at 0.5 µM: read-out: % Enzyme Activity (relative to DMSO controls)
Description: as §1

[4] = target: 363 human kinases (including Aurora A/B/C) (Homo sapiens, UniProt P53667); conditions: LIMK1; for remaining activity at 0.1 µM: 100 nM; for remaining activity at 0.1 µM / remaining activity at 0.5 µM: read-out: % Enzyme Activity (relative to DMSO controls)
Description: as §1

[5] = target: T2, 363 human kinases (including Aurora A/B/C) (Homo sapiens, UniProt P42681); conditions: TXK; for remaining activity at 0.1 µM: 100 nM; for remaining activity at 0.1 µM / remaining activity at 0.5 µM: read-out: % Enzyme Activity (relative to DMSO controls)
T2 sequence (P42681 1-527): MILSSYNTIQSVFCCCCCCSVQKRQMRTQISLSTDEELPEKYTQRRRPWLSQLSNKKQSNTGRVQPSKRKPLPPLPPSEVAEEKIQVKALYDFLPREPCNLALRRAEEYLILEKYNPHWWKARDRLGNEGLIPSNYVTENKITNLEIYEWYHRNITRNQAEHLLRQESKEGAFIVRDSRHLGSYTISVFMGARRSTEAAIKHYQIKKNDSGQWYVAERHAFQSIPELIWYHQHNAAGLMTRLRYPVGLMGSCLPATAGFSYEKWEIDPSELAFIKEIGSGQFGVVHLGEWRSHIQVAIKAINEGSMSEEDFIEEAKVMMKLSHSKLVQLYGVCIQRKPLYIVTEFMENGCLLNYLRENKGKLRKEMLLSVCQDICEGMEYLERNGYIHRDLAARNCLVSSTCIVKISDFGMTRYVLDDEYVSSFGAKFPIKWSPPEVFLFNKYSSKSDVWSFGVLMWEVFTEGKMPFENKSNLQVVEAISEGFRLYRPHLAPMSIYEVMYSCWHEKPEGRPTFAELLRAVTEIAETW
Description: as §1

[6] = target: 363 human kinases (including Aurora A/B/C) (Homo sapiens, UniProt P29317); conditions: EPHA2, [ATP] 50 µM; for remaining activity at 0.1 µM: 100 nM; for remaining activity at 0.1 µM / remaining activity at 0.5 µM: read-out: % Enzyme Activity (relative to DMSO controls)
Description: as §1

[7] = target: 363 human kinases (including Aurora A/B/C) (Homo sapiens, UniProt Q9H2X6); conditions: HIPK2; for remaining activity at 0.1 µM: 100 nM; for remaining activity at 0.1 µM / remaining activity at 0.5 µM: read-out: % Enzyme Activity (relative to DMSO controls)
Description: as §1

[8] = target: 363 human kinases (including Aurora A/B/C) (Homo sapiens, UniProt P53355); conditions: DAPK1, [ATP] 10 µM; for remaining activity at 0.1 µM: 100 nM; for remaining activity at 0.1 µM / remaining activity at 0.5 µM: read-out: % Enzyme Activity (relative to DMSO controls)
Description: as §1

[9] = target: 363 human kinases (including Aurora A/B/C) (Homo sapiens, UniProt Q14680); conditions: MELK; for remaining activity at 0.1 µM: 100 nM; for remaining activity at 0.1 µM / remaining activity at 0.5 µM: read-out: % Enzyme Activity (relative to DMSO controls)
Description: as §1

[10] = target: 363 human kinases (including Aurora A/B/C) (Homo sapiens, UniProt P32298); conditions: GRK4; for remaining activity at 0.1 µM: 100 nM; for remaining activity at 0.1 µM / remaining activity at 0.5 µM: read-out: % Enzyme Activity (relative to DMSO controls)
Description: as §1

[11] = target: 363 human kinases (including Aurora A/B/C) (Homo sapiens, UniProt O75676); conditions: MSK2/RPS6KA4; for remaining activity at 0.1 µM: 100 nM; for remaining activity at 0.1 µM / remaining activity at 0.5 µM: read-out: % Enzyme Activity (relative to DMSO controls)
Description: as §1

[12] = target: 363 human kinases (including Aurora A/B/C) (Homo sapiens, UniProt P53779); conditions: JNK3; for remaining activity at 0.1 µM: 100 nM; for remaining activity at 0.1 µM / remaining activity at 0.5 µM: read-out: % Enzyme Activity (relative to DMSO controls)
Description: as §1

[13] = target: 363 human kinases (including Aurora A/B/C) (Homo sapiens, UniProt Q9HC98); conditions: NEK6; for remaining activity at 0.1 µM: 100 nM; for remaining activity at 0.1 µM / remaining activity at 0.5 µM: read-out: % Enzyme Activity (relative to DMSO controls)
Description: as §1

[14] = target: 363 human kinases (including Aurora A/B/C) (Homo sapiens, UniProt P21802); conditions: FGFR2, [ATP] 5 µM; for remaining activity at 0.1 µM: 100 nM; for remaining activity at 0.1 µM / remaining activity at 0.5 µM: read-out: % Enzyme Activity (relative to DMSO controls)
Description: as §1

[15] = target: 363 human kinases (including Aurora A/B/C) (Homo sapiens, UniProt P29376); conditions: TYK1/LTK; for remaining activity at 0.1 µM: 100 nM; for remaining activity at 0.1 µM / remaining activity at 0.5 µM: read-out: % Enzyme Activity (relative to DMSO controls)
Description: as §1

Sequence of 363 human kinases (including Aurora A/B/C) (Homo sapiens, UniProt P21802) (P21802 22-821): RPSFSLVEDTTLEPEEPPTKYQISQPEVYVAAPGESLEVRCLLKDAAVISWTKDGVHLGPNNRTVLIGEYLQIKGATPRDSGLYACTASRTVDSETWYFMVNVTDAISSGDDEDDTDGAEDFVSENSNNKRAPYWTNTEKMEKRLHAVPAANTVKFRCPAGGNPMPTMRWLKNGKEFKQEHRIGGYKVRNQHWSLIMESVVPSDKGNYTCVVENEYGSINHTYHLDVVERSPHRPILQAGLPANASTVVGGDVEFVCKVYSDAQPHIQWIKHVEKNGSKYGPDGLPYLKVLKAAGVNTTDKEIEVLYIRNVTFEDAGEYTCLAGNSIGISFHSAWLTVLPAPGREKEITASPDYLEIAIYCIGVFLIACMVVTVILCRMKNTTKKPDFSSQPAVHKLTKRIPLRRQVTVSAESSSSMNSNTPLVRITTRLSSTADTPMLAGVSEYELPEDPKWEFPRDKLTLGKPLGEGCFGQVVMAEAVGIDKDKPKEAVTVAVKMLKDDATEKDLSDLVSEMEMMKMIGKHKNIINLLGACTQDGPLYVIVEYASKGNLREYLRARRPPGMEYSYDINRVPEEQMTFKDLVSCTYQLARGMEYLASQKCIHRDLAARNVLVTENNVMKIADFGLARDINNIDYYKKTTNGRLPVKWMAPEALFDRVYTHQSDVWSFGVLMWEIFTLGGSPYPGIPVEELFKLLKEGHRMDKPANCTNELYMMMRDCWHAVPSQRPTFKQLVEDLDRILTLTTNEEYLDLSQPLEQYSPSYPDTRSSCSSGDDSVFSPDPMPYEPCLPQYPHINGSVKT
Sequence of 363 human kinases (including Aurora A/B/C) (Homo sapiens, UniProt Q9H2X6) (Q9H2X6 whole entry): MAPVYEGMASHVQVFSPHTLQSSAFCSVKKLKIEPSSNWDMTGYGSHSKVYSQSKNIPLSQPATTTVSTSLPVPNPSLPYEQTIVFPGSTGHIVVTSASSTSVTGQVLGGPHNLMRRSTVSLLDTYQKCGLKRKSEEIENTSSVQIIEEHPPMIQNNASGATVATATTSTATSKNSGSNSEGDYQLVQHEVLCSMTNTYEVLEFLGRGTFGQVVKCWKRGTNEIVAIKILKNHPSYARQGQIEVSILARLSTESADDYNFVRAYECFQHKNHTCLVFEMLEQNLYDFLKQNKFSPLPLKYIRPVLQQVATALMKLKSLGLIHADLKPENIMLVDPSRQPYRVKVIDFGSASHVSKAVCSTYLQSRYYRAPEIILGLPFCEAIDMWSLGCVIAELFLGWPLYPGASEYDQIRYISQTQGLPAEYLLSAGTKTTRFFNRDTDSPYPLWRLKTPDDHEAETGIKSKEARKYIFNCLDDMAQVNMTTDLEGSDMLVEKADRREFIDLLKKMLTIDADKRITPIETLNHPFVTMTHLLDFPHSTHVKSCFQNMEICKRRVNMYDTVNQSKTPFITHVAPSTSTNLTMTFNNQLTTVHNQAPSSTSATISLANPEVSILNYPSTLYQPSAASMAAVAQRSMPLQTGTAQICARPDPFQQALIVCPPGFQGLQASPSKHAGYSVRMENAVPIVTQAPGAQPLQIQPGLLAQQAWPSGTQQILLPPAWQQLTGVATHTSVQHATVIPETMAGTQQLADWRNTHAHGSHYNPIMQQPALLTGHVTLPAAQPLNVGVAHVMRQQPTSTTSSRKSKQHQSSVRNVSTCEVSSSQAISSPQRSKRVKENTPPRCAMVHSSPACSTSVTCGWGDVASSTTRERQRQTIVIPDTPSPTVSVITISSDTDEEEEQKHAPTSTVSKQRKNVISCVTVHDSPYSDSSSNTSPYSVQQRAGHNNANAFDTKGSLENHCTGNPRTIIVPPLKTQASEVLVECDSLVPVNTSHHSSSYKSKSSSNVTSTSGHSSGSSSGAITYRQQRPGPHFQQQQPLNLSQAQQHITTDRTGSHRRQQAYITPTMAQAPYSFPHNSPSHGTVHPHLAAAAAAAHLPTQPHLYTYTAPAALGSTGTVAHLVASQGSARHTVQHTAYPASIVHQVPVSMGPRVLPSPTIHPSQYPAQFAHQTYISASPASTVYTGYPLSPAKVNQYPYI
Sequence of 363 human kinases (including Aurora A/B/C) (Homo sapiens, UniProt Q9HC98) (Q9HC98 whole entry): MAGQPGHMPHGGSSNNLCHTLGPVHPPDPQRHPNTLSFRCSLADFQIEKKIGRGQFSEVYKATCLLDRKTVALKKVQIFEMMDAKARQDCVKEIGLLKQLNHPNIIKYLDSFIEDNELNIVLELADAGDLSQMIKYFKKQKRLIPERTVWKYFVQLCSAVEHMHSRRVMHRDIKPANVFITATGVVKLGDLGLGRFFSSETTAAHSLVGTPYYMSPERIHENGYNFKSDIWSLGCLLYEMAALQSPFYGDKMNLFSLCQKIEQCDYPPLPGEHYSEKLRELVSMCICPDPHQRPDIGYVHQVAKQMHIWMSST
Sequence of 363 human kinases (including Aurora A/B/C) (Homo sapiens, UniProt P32298) (P32298 whole entry): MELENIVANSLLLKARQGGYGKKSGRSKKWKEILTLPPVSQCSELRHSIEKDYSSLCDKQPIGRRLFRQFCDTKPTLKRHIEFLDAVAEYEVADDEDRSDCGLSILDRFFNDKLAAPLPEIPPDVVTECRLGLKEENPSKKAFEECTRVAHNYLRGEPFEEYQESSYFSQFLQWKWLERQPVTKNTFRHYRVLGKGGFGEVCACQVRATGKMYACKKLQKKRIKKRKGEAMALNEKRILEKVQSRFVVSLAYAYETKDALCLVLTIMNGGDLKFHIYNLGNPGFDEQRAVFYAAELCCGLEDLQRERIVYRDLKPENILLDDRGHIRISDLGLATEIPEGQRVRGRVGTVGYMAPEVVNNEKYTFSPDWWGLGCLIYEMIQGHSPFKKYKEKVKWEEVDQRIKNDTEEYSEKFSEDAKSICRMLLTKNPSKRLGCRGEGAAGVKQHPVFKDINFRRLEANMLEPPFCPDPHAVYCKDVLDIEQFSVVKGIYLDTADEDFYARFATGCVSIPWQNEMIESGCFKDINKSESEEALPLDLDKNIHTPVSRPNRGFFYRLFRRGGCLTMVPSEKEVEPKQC
Sequence of 363 human kinases (including Aurora A/B/C) (Homo sapiens, UniProt P53355) (P53355 whole entry): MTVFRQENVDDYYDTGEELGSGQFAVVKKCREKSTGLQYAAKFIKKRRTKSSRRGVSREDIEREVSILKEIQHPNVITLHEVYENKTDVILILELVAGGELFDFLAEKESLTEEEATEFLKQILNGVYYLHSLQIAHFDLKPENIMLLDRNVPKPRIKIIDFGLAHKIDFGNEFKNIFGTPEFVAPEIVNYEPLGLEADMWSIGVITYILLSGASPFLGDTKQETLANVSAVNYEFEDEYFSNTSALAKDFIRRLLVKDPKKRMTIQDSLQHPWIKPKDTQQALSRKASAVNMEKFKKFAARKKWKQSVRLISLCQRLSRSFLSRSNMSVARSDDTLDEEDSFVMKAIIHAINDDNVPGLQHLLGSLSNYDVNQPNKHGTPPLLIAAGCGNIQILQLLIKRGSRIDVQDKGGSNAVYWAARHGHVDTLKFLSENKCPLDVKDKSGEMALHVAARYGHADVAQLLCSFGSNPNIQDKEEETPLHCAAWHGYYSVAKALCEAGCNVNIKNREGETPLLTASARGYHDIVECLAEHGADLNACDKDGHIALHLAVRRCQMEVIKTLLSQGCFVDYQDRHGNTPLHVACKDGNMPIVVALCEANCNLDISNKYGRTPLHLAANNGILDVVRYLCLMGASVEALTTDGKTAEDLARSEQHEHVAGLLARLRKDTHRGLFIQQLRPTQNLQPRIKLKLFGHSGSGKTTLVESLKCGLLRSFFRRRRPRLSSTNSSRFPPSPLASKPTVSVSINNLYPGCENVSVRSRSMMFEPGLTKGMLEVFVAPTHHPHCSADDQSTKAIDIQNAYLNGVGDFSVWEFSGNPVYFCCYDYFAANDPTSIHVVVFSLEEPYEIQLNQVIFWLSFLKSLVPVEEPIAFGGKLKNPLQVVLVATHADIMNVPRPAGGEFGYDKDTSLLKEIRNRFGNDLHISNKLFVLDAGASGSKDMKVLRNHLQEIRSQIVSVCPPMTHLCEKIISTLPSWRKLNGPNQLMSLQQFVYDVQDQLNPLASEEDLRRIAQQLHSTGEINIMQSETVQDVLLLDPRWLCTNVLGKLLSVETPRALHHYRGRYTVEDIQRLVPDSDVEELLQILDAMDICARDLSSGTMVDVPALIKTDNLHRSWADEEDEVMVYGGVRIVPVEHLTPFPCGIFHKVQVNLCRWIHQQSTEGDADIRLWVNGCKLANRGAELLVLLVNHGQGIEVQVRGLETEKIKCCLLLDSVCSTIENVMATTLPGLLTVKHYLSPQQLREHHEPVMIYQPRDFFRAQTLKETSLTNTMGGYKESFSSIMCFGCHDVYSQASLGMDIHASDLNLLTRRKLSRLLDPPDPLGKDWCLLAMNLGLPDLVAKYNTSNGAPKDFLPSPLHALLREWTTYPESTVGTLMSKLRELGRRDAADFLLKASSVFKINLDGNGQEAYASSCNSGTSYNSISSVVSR
Sequence of 363 human kinases (including Aurora A/B/C) (Homo sapiens, UniProt Q14680) (Q14680 whole entry): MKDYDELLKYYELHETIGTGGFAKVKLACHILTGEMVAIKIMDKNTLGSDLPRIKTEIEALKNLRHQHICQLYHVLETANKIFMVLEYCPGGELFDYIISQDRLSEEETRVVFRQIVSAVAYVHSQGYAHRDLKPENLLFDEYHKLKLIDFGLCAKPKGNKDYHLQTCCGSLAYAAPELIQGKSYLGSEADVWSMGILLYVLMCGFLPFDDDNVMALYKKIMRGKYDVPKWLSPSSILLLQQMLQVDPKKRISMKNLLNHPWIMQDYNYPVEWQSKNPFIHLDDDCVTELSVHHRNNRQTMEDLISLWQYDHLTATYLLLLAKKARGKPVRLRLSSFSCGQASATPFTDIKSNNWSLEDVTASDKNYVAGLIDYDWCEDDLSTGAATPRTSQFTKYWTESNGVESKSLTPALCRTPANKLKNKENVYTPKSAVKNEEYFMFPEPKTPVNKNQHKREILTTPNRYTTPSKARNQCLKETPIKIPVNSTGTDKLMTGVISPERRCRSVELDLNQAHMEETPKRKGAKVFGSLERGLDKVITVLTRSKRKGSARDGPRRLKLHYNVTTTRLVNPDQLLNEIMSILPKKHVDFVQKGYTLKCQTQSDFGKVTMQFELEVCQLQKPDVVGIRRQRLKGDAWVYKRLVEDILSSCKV

## CCn1cc(-c2ccnc3[nH]c(-c4cccc(CN(C)C)c4)cc23)c(-c2ccc(NC(=O)N(C)C)cc2)n1 [GSK1070916]
[1]
  remaining activity at 0.1 µM: 109%
[2]
  remaining activity at 0.1 µM: 76.1%
[3]
  remaining activity at 0.1 µM: 84%
[4]
  remaining activity at 0.1 µM: 96.8%
[5]
  remaining activity at 0.1 µM: 86.3%
[6]
  remaining activity at 0.1 µM: 92.7%
[7]
  remaining activity at 0.1 µM: 104%
[8]
  remaining activity at 0.1 µM: 94.7%
[9]
  remaining activity at 0.1 µM: 95.7%
[10]
  remaining activity at 0.1 µM: 95.2%
[11]
  remaining activity at 0.1 µM: 103%
[12]
  remaining activity at 0.1 µM: 94%
[13]
  remaining activity at 0.1 µM: 109%
[14]
  remaining activity at 0.1 µM: 43.3%
[15]
  remaining activity at 0.1 µM: 106%

## O=C(O)[C@]1(Cc2cccc(Nc3nccs3)n2)CC[C@@H](Oc2cccc(Cl)c2F)CC1 [MK-5108]
[1]
  remaining activity at 0.1 µM: 95.9%
[1]; 500 nM
  remaining activity at 0.5 µM: 112%
[2]
  remaining activity at 0.1 µM: 21.8%
[2]; 500 nM
  remaining activity at 0.5 µM: 9.68%
[3]
  remaining activity at 0.1 µM: 96.2%
[3]; 500 nM
  remaining activity at 0.5 µM: 92.4%
[4]
  remaining activity at 0.1 µM: 96.9%
[4]; 500 nM
  remaining activity at 0.5 µM: 69%
[5]
  remaining activity at 0.1 µM: 35.6%
[5]; 500 nM
  remaining activity at 0.5 µM: 10.5%
[6]
  remaining activity at 0.1 µM: 13.4%
[6]; 500 nM
  remaining activity at 0.5 µM: 4.4%
[7]
  remaining activity at 0.1 µM: 89.2%
[7]; 500 nM
  remaining activity at 0.5 µM: 50%
[8]
  remaining activity at 0.1 µM: 104%
[8]; 500 nM
  remaining activity at 0.5 µM: 101%
[9]
  remaining activity at 0.1 µM: 109%
[9]; 500 nM
  remaining activity at 0.5 µM: 112%
[10]
  remaining activity at 0.1 µM: 96.7%
[10]; 500 nM
  remaining activity at 0.5 µM: 92.9%
[11]
  remaining activity at 0.1 µM: 103%
[11]; 500 nM
  remaining activity at 0.5 µM: 98.8%
[12]
  remaining activity at 0.1 µM: 96.1%
[12]; 500 nM
  remaining activity at 0.5 µM: 98.7%
[13]
  remaining activity at 0.1 µM: 87%
[13]; 500 nM
  remaining activity at 0.5 µM: 115%
[14]
  remaining activity at 0.1 µM: 39.7%
[14]; 500 nM
  remaining activity at 0.5 µM: 11.2%
[15]
  remaining activity at 0.1 µM: 87.6%
[15]; 500 nM
  remaining activity at 0.5 µM: 64.2%

## O=C(c1cccc(Cl)c1F)N1CCN(Cc2cccc(Nc3nccs3)n2)CC1 [MK-8745]
[1]; 500 nM
  % Enzyme Activity (relative to DMSO controls): 107.62%
  remaining activity at 0.5 µM: 110%
[2]; 500 nM
  % Enzyme Activity (relative to DMSO controls): 71.49%
  remaining activity at 0.5 µM: 73.2%
[3]; 500 nM
  % Enzyme Activity (relative to DMSO controls): 93.71%
  remaining activity at 0.5 µM: 94%
[4]; 500 nM
  % Enzyme Activity (relative to DMSO controls): 99.25%
  remaining activity at 0.5 µM: 101%
[5]; 500 nM
  % Enzyme Activity (relative to DMSO controls): 80.24%
  remaining activity at 0.5 µM: 80.3%
[6]; 500 nM
  % Enzyme Activity (relative to DMSO controls): 62.60%
  remaining activity at 0.5 µM: 63.4%
[7]; 500 nM
  % Enzyme Activity (relative to DMSO controls): 102.33%
  remaining activity at 0.5 µM: 106%
[8]; 500 nM
  % Enzyme Activity (relative to DMSO controls): 98.77%
  remaining activity at 0.5 µM: 101%
[9]; 500 nM
  % Enzyme Activity (relative to DMSO controls): 93.77%
  remaining activity at 0.5 µM: 95.9%
[10]; 500 nM
  % Enzyme Activity (relative to DMSO controls): 94.47%
  remaining activity at 0.5 µM: 94.8%
[11]; 500 nM
  % Enzyme Activity (relative to DMSO controls): 96.01%
  remaining activity at 0.5 µM: 96.1%
[12]; 500 nM
  % Enzyme Activity (relative to DMSO controls): 78.39%
  remaining activity at 0.5 µM: 78.8%
[13]; 500 nM
  % Enzyme Activity (relative to DMSO controls): 99.72%
  remaining activity at 0.5 µM: 102%
[14]; 500 nM
  % Enzyme Activity (relative to DMSO controls): 90.67%
  remaining activity at 0.5 µM: 92%
[15]; 500 nM
  % Enzyme Activity (relative to DMSO controls): 94.24%
  remaining activity at 0.5 µM: 96.4%
